# Assay results as given in publication PMC7180572, “5-Alkylamino-N-phenylpyrazine-2-carboxamides: Design, Preparation, and Antimycobacterial Evaluation” (Molecules, 2020).
# pIC50: −log10 of the molar value. Like-named read-outs stand apart in the source and are kept apart here.
# How the values were obtained:
# [1] = tested on: Enterococcus faecalis ATCC 29212, CCM 4224; experiment: Antibacterial microdilution broth method (EUCAST); type: cell-based; conditions: read-out: MIC EF
# [2] = tested on: Staphylococcus aureus spp.aureus ATCC 29213, CCM 4223; experiment: Antibacterial microdilution broth method (EUCAST); type: cell-based; conditions: read-out: MIC SA
# [3] = tested on: Mycobacterium smegmatis DSM 43465 (ATCC 607); experiment: Microdilution broth, modified Microplate Alamar Blue Assay, whole cell growth inhibition; type: cell-based; conditions: Mycolicibacterium smegmatis, read-out: MIC Mycobacterium smegmatis
# [4] = tested on: Candida tropicalis ATCC 750, CCM 8264; experiment: Antifungal microdilution broth method (EUCAST); type: cell-based; conditions: read-out: MIC CT
# [5] = tested on: Candida krusei ATCC 6258, CCM 8271; experiment: Antifungal microdilution broth method (EUCAST); type: cell-based; conditions: Pichia kudriavzevii
# [6] = tested on: Mycobacterium aurum DSM 43999 (ATCC 23366); experiment: Microdilution broth, modified Microplate Alamar Blue Assay, whole cell growth inhibition; type: cell-based; conditions: Mycolicibacterium aurum, read-out: MIC Mycobacterium aurum
# [7] = tested on: Candida albicans ATCC 24433, CCM 8320; experiment: Antifungal microdilution broth method (EUCAST); type: cell-based
# [8] = tested on: Klebsiella pneumoniae ATCC 10031, CCM 4415; experiment: Antibacterial microdilution broth method (EUCAST)
# [9] = tested on: Pseudomonas aeruginosa ATCC 27853, CCM 3955; experiment: Antibacterial microdilution broth method (EUCAST); type: cell-based; conditions: read-out: MIC PA
# [10] = tested on: Candida parapsilosis ATCC 22019, CCM 8260; experiment: Antifungal microdilution broth method (EUCAST); type: cell-based; conditions: Lodderomyces parapsilosis
# [11] = tested on: Aspergillus fumigatus ATCC 204305; experiment: Antifungal microdilution broth method (EUCAST); type: cell-based; conditions: read-out: MIC AF
# [12] = tested on: Staphylococcus aureus methicillin resistant ATCC 43300, CCM 4750; experiment: microbe, parasite or virus in culture; type: cell-based; conditions: ATCC 43300 / CCM 4750 / MRSA, read-out: MIC MRSA
# [13] = tested on: Mycobacterium tuberculosis H37Ra ITM-M006710 (ATCC 9431); experiment: Microdilution broth, modified Microplate Alamar Blue Assay, whole cell growth inhibition; type: cell-based; conditions: Mycobacterium tuberculosis; in vitro, Middlebrook 7H9 broth, resazurin; read-out: MIC Mtb H37Ra
# [14] = tested on: Trichophyton interdigitale ATCC 9533, CCM 8377; experiment: Antifungal microdilution broth method (EUCAST); type: cell-based; conditions: read-out: MIC TI
# [15] = tested on: Absidia corymbifera CCM 8077 (Lichtheimia corymbifera); experiment: Antifungal microdilution broth method (EUCAST); type: cell-based; conditions: read-out: MIC AC
# [16] = tested on: Staphylococcus epidermidis ATCC 12228, CCM 4418; experiment: Antibacterial microdilution broth method (EUCAST); type: cell-based; conditions: read-out: MIC SE
# [17] = tested on: Acinetobacter baumanii ATCC 19606, DSM 30007; experiment: Antibacterial microdilution broth method (EUCAST); type: cell-based; conditions: Acinetobacter baumannii
# [18] = tested on: Escherichia coli ATCC 25922, CCM 3954; experiment: Antibacterial microdilution broth method (EUCAST); type: cell-based; conditions: read-out: MIC EC
# HepG2 cells = experiment: HepG2 cytotoxicity, CellTiter 96 (MTS) assay; type: cell-based, human; conditions: for pIC50: Homo sapiens, HepG2, 24 h, read-out: HepG2 IC50; for SI, selectivity index: IC50 (HepG2)/MIC against Mtb H37Ra (in µM)
# [19] = tested on: Aspergillus flavus CCM 8363; experiment: Antifungal microdilution broth method (EUCAST); type: cell-based; conditions: read-out: MIC AFla
smiles,measurement,setting,value
"CCCNc1cnc(C(=O)Nc2ccc(O)cc2)cn1 [Compound 3a, N-(4-hydroxyphenyl)-5-(propylamino)pyrazine-2-carboxamide]",MIC,[1]; 24 h,> 500 µM
same,MIC,[1]; 48 h,> 500 µM
same,MIC,[2]; 24 h,> 500 µM
same,MIC,[2]; 48 h,> 500 µM
same,MIC,[3],≥ 500 µg/mL
same,MIC,[4]; 24 h,> 500 µM
same,MIC,[4]; 48 h,> 500 µM
same,MIC,"[5]; 24 h, read-out: MIC CK",> 500 µM
same,MIC,"[5]; 48 h, read-out: MIC CK",> 500 µM
same,MIC,[6],≥ 500 µg/mL
same,MIC,"[7]; 24 h, read-out: MIC CA",> 500 µM
same,MIC,"[7]; 48 h, read-out: MIC CA",> 500 µM
same,MIC KP,[8]; 24h,> 500 µM
same,MIC KP,[8]; 48h,> 500 µM
same,MIC,[9]; 72 h,> 500 µM
same,MIC,[9]; 120 h,> 500 µM
same,MIC,"[10]; 24 h, read-out: MIC CP",> 500 µM
same,MIC,"[10]; 48 h, read-out: MIC CP",> 500 µM
same,MIC,"[11]; ATCC204305, 24 h",> 500 µM
same,MIC,"[11]; ATCC204305, 48 h",> 500 µM
same,MIC,[12]; 24 h,> 500 µM
same,MIC,[12]; 48 h,> 500 µM
same,MIC,[13],15.6 µg/mL
same,MIC,[14]; 72 h,> 500 µM
same,MIC,[14]; 120 h,> 500 µM
same,MIC,"[15]; CCM8077, 24 h",> 500 µM
same,MIC,"[15]; CCM8077, 48 h",> 500 µM
same,MIC,[16]; 24 h,> 500 µM
same,MIC,[16]; 48 h,> 500 µM
same,MIC,[17]; 24h,> 500 µM
same,MIC,[17]; 48h,> 500 µM
same,melting point,,209.3 to 215.6 °C
same,MIC,[18]; 24 h,> 500 µM
same,MIC,[18]; 48 h,> 500 µM
same,pIC50,HepG2 cells,3.39
same,"SI, selectivity index",HepG2 cells,7.18
same,MIC,"[19]; CCM8363, 24 h",> 500 µM
same,MIC,"[19]; CCM8363, 48 h",> 500 µM
"CCCNc1cnc(C(=O)Nc2cccc(C(F)(F)F)c2)cn1 [Compound 1a, 5-(Propylamino)-N-(3-(trifluoromethyl)phenyl)pyrazine-2-carboxamide]",MIC,[1]; 24 h,> 500 µM
same,MIC,[1]; 48 h,> 500 µM
same,MIC,[2]; 24 h,> 500 µM
same,MIC,[2]; 48 h,> 500 µM
same,MIC,[3],≥ 500 µg/mL
same,MIC,[4]; 24 h,> 125 µM
same,MIC,[4]; 48 h,> 125 µM
same,MIC,"[5]; 24 h, read-out: MIC CK",> 125 µM
same,MIC,"[5]; 48 h, read-out: MIC CK",> 125 µM
same,MIC,[6],≥ 500 µg/mL
same,MIC,"[7]; 24 h, read-out: MIC CA",> 125 µM
same,MIC,"[7]; 48 h, read-out: MIC CA",> 125 µM
same,MIC KP,[8]; 24h,> 500 µM
same,MIC KP,[8]; 48h,> 500 µM
same,MIC,[9]; 72 h,> 500 µM
same,MIC,[9]; 120 h,> 500 µM
same,MIC,"[10]; 24 h, read-out: MIC CP",> 125 µM
same,MIC,"[10]; 48 h, read-out: MIC CP",> 125 µM
same,MIC,"[11]; ATCC204305, 24 h",> 125 µM
same,MIC,"[11]; ATCC204305, 48 h",> 125 µM
same,MIC,[12]; 24 h,> 500 µM
same,MIC,[12]; 48 h,> 500 µM
same,MIC,[13],6.25 µg/mL
same,MIC,[14]; 72 h,> 125 µM
same,MIC,[14]; 120 h,> 125 µM
same,MIC,"[15]; CCM8077, 24 h",> 125 µM
same,MIC,"[15]; CCM8077, 48 h",> 125 µM
same,MIC,[16]; 24 h,> 500 µM
same,MIC,[16]; 48 h,> 500 µM
same,MIC,[17]; 24h,> 500 µM
same,MIC,[17]; 48h,> 500 µM
same,melting point,,155 to 156 °C
same,MIC,[18]; 24 h,> 500 µM
same,MIC,[18]; 48 h,> 500 µM
same,pIC50,HepG2 cells,< 4.60
same,"SI, selectivity index",HepG2 cells,>1.3
same,MIC,"[19]; CCM8363, 24 h",> 125 µM
same,MIC,"[19]; CCM8363, 48 h",> 125 µM
"CCCCCNc1cnc(C(=O)Nc2cccc(C(F)(F)F)c2)cn1 [Compound 1c, 5-(Pentylamino)-N-(3-(trifluoromethyl)phenyl)pyrazine-2-carboxamide]",MIC,[1]; 24 h,> 500 µM
same,MIC,[1]; 48 h,> 500 µM
same,MIC,[2]; 24 h,> 500 µM
same,MIC,[2]; 48 h,> 500 µM
same,MIC,[3],1.56 µg/mL
same,MIC,[4]; 24 h,> 125 µM
same,MIC,[4]; 48 h,> 125 µM
same,MIC,"[5]; 24 h, read-out: MIC CK",62.5 µM
same,MIC,"[5]; 48 h, read-out: MIC CK",62.5 µM
same,MIC,[5]; read-out: MIC CK (Candida krusei),62.5 µM
same,MIC,[6],3.13 µg/mL
same,MIC,"[7]; 24 h, read-out: MIC CA",> 125 µM
same,MIC,"[7]; 48 h, read-out: MIC CA",> 125 µM
same,MIC,[7]; read-out: MIC CA (Candida albicans),> 125 µM
same,MIC KP,[8]; 24h,> 500 µM
same,MIC KP,[8]; 48h,> 500 µM
same,MIC,[9]; 72 h,> 500 µM
same,MIC,[9]; 120 h,> 500 µM
same,MIC,"[10]; 24 h, read-out: MIC CP",125 µM
same,MIC,"[10]; 48 h, read-out: MIC CP",125 µM
same,MIC,[10]; read-out: MIC CP (Candida parapsilosis),125 µM
same,MIC,"[11]; ATCC204305, 24 h",> 125 µM
same,MIC,"[11]; ATCC204305, 48 h",> 125 µM
same,MIC,[12]; 24 h,> 500 µM
same,MIC,[12]; 48 h,> 500 µM
same,MIC,[13],3.13 µg/mL
same,MIC,[14]; 72 h,> 125 µM
same,MIC,[14]; 120 h,> 125 µM
same,MIC,"[15]; CCM8077, 24 h",> 125 µM
same,MIC,"[15]; CCM8077, 48 h",> 125 µM
same,MIC,[16]; 24 h,> 500 µM
same,MIC,[16]; 48 h,> 500 µM
same,MIC,[17]; 24h,> 500 µM
same,MIC,[17]; 48h,> 500 µM
same,melting point,,128 to 129 °C
same,MIC,[18]; 24 h,> 500 µM
same,MIC,[18]; 48 h,> 500 µM
same,pIC50,HepG2 cells,4.72
same,"SI, selectivity index",HepG2 cells,2.13
same,MIC,"[19]; CCM8363, 24 h",> 125 µM
same,MIC,"[19]; CCM8363, 48 h",> 125 µM
